Target: T1, serotonin 5-HT1A receptor (Rattus norvegicus, UniProt P19327)
T1 sequence (P19327 1-422): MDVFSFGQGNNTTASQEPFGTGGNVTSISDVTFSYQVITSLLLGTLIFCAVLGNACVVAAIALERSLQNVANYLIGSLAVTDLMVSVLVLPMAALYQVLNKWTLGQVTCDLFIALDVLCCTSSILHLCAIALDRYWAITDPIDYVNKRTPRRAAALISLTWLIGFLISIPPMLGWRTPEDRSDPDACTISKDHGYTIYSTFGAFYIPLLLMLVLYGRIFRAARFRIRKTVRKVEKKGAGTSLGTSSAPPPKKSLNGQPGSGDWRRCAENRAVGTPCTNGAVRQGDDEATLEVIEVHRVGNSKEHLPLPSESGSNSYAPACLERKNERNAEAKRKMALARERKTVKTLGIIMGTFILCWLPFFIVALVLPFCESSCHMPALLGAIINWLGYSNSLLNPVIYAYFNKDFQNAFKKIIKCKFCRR
Experiment: [3H]WAY-100635 radioligand displacement in rat brain homogenates
Assay type: binding

## COc1ccccc1N1CCN(CCN(c2ccccn2)C(=O)[C@H]2CC[C@H](CF)CC2)CC1 [trans-mefway, N-{2-[4-(2'-methoxyphenyl)piperazinyl]ethyl}-N-(2-pyridyl)-N-(cis/trans-4'-[^18F]fluoromethylcyclohexane)-carboxamide]
  Ki: 0.84 nM
